Experimental findings from patent USRE47689E1, “Compounds for treating spinal muscular atrophy” (PTC Therapeutics, Inc., priority 2011, dated 2019) are described below.

The subject of series [1] is SMN2 minigene (full length SMN2 minigene mRNA containing SMN2 exon 7). Nature of the series: SMN2 minigene mRNA splicing RT-qPCR assay in cultured cells. The class given is cell-based, human. Particulars: Homo sapiens, HEK293-H, read-out: EC1.5x for production of full length SMN2 mRNA. The method in brief:
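HEK293H cells stably carrying the SMN2-A minigene treated 24 h at 37° C with compound (DMSO, 200× stock), then lysed. Multiplex RT-qPCR (SMN primers 0.4 μM final; 40 cycles) measures full-length exon 7-containing minigene mRNA, normalized to GAPDH and to vehicle; EC1.5x derived and binned by stars.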

The subject of another series is Smn protein. Nature of the series: Smn protein assay in cultured cells (SMN HTRF). Format: cell-based, human. Particulars: 48 hours; for EC1.5x (concentration giving 1.5-fold Smn protein increase): SMA Type 1 patient fibroblast cells (GM03813), 7-point concentration curve, SMN HTRF, concentration producing 1.5 times Smn protein vs DMSO vehicle control, read-out: EC1.5x for Smn protein expression; for maximum fold (Fold) increase of Smn protein: SMA patient fibroblast cells, 7-point concentration data, fold increase relative to vehicle control (SMN HTRF). Summed up:
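Lysates in RIPA with protease inhibitors are incubated overnight at room temperature with HTRF anti-SMN antibodies. EC1.5x is derived from fold increase in ΔF over vehicle.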

The mark [2] stands for this setting: HEK293H cells stably transfected with SMN2-A minigene, 24 hours, 7-point concentration curve, 1.5-fold relative to vehicle-treated cells.

Like-named read-outs stand apart in the source and are kept apart here.

In turn, `Cc1cn2cc(-c3cc4ccc(N5CCN6CCC[C@H]6C5)cc4oc3=O)nc2c(C)n1` [Compound 634, 3-(6,8-dimethylimidazo[1,2-a]pyrazin-2-yl)-7-[(8aS)-hexahydropyrrolo[1,2-a]pyrazin-2(1H)-yl]-2H-chromen-2-one] registered a melting point of 261 to 263 °C. In series [1] (setting [2]), the EC (1.5-fold) is < 0.1 µM. In the series on Smn protein, the EC1.5x (concentration giving 1.5-fold Smn protein increase) is < 300 nM and the “maximum fold (Fold) increase of Smn protein” value (“maximum fold (Fold) increase” below) is given as “***** (fold increase >1.65)”.

The compound `Cc1cn2cc(-c3cc4ccc(CCCN(CCO)CCO)cc4oc3=O)nc2c(C)n1` [Compound 885, 7-{3-[bis(2-hydroxyethyl)amino]propyl}-3-(6,8-dimethylimidazo[1,2-a]pyrazin-2-yl)-2H-chromen-2-one] displayed a melting point of 158 to 162 °C. The EC (1.5-fold) in series [1] (setting [2]) was in the range of 0.1 to 0.3 µM. Moreover, in the series with Smn protein, the EC1.5x (concentration giving 1.5-fold Smn protein increase) fell in the range of 300 to 1000 nM and the “maximum fold (Fold) increase” value was “***** (fold increase >1.65)”.

On to `CN1CCN(c2ccc3cc(-c4cc5ccccn5n4)c(=O)oc3c2)CC1` [Compound 188, 7-(4-methylpiperazin-1-yl)-3-(pyrazolo[1,5-a]pyridin-2-yl)-2H-chromen-2-one], for which the melting point lay in the range of 235 to 237 °C. In series [1] (setting [2]), the EC (1.5-fold) was 0.3 to 1 µM. Also, in the series on Smn protein, the EC1.5x (concentration giving 1.5-fold Smn protein increase) is 3000 to 10000 nM; the “maximum fold (Fold) increase” value is “*** (fold increase between >1.35 and ≤1.5)”.

In turn, `Cc1cn2cc(-c3cc4ccc(N5CCN6C[C@H](O)C[C@H]6C5)cc4oc3=O)cc2c(C)n1` [Compound 767, 3-(1,3-dimethylpyrrolo[1,2-a]pyrazin-7-yl)-7-[(7R,8aS)-7-hydroxyhexahydropyrrolo[1,2-a]pyrazin-2(1H)-yl]-2H-chromen-2-one] returned a melting point of 185 to 188 °C. Besides, in series [1] (setting [2]), the EC (1.5-fold) was < 0.1 µM. In the series with Smn protein, the EC1.5x (concentration giving 1.5-fold Smn protein increase) is < 300 nM and the “maximum fold (Fold) increase” value was “***** (fold increase >1.65)”.

With `C[C@@H]1CN(c2ccc3cc(-c4cc5cnccc5s4)c(=O)oc3c2)C[C@H](C)N1` [Cpd 630, 7-[(3R,5S)-3,5-dimethylpiperazin-1-yl]-3-(thieno[3,2-c]pyridin-2-yl)-2H-chromen-2-one], the melting point lay in the range of 163 to 165 °C. In addition, in series [1] (setting [2]), the EC (1.5-fold) lay within 0.3 to 1 µM. The “maximum fold (Fold) increase” value with Smn protein was “* (maximum fold increase of ≤1.2)”.

With `Cc1cn2cc(-c3cc4ccc(N5CCN(C)[C@H](C)C5)cc4oc3=O)nc2cn1` [Compound 628, 7-[(3R)-3,4-dimethylpiperazin-1-yl]-3-(6-methylimidazo[1,2-a]pyrazin-2-yl)-2H-chromen-2-one], the melting point fell in the range of 256 to 258 °C. Moreover, the EC (1.5-fold) in series [1] (setting [2]) was < 0.1 µM. For the same compound, in the series on Smn protein, the EC1.5x (concentration giving 1.5-fold Smn protein increase) was < 300 nM; the “maximum fold (Fold) increase” value was “**** (fold increase between >1.5 and ≤1.65)”.

Consider `Cc1nccn2cc(-c3cc4ccc(N5CCNCC5)cc4oc3=O)cc12` [Compound 555, 3-(1-methylpyrrolo[1,2-a]pyrazin-7-yl)-7-(piperazin-1-yl)-2H-chromen-2-one], for which the melting point fell in the range of 264 to 266 °C. Also, the EC (1.5-fold) in series [1] (setting [2]) was 0.1 to 0.3 µM. Also, in the series on Smn protein, the EC1.5x (concentration giving 1.5-fold Smn protein increase) is < 300 nM; the “maximum fold (Fold) increase” value was “**** (fold increase between >1.5 and ≤1.65)”.

In turn, `O=c1oc2cc(N3CCNCC3)cc(F)c2cc1-c1nc2c(F)cccc2o1` [Compound 292, 5-fluoro-3-(4-fluoro-1,3-benzoxazol-2-yl)-7-(piperazin-1-yl)-2H-chromen-2-one] registered a melting point of 225 to 230 °C. For the same compound, the EC (1.5-fold) in series [1] (setting [2]) fell in the range of 0.3 to 1 µM. In addition, the “maximum fold (Fold) increase” value in the series with Smn protein was “*** (fold increase between >1.35 and ≤1.5)”.

On to `O=c1oc2cc(N3CCCNCC3)ccc2cc1-c1cn2ccncc2n1` [Compound 454, 7-(1,4-diazepan-1-yl)-3-(imidazo[1,2-a]pyrazin-2-yl)-2H-chromen-2-one], for which the melting point was in the range of 247 to 249 °C. Further, the EC (1.5-fold) in series [1] (setting [2]) is < 0.1 µM. Moreover, in the series with Smn protein, the EC1.5x (concentration giving 1.5-fold Smn protein increase) lay within 3000 to 10000 nM; the “maximum fold (Fold) increase” value is “*** (fold increase between >1.35 and ≤1.5)”.

As to `Cc1cn2cc(-c3cc4ccc(N5CCN(CCCO)[C@@H](C)C5)cc4oc3=O)nc2c(C)n1` [Compound 907, 3-(6,8-dimethylimidazo[1,2-a]pyrazin-2-yl)-7-[(3S)-4-(3-hydroxypropyl)-3-methylpiperazin-1-yl]-2H-chromen-2-one], the melting point is 187 to 190 °C. The EC (1.5-fold) in series [1] (setting [2]) is < 0.1 µM. For the same compound, in the series with Smn protein, the EC1.5x (concentration giving 1.5-fold Smn protein increase) is < 300 nM; the “maximum fold (Fold) increase” value is “**** (fold increase between >1.5 and ≤1.65)”.

For `C[C@@H]1CN(c2ccc3cc(-c4cc5ccccn5n4)c(=O)oc3c2)C[C@H](C)N1` [Compound 189, 7-[(3R,5S)-3,5-dimethylpiperazin-1-yl]-3-(pyrazolo[1,5-a]pyridin-2-yl)-2H-chromen-2-one], the melting point lay within 188 to 190 °C. Also, the EC (1.5-fold) in series [1] (setting [2]) lay in the range of 1 to 3 µM. In addition, in the series with Smn protein, the “maximum fold (Fold) increase” value was “** (fold increase between >1.2 and ≤1.35)”.

For the compound `O=c1oc2cc(N3CCNCC3)ccc2cc1-c1cc2ccccn2c1` [Cpd 529, 3-(indolizin-2-yl)-7-(piperazin-1-yl)-2H-chromen-2-one], the melting point is 186 to 188 °C. Besides, the EC (1.5-fold) in series [1] (setting [2]) lay within 1 to 3 µM. Besides, the “maximum fold (Fold) increase” value in the series with Smn protein is on record as “* (maximum fold increase of ≤1.2)”.

Regarding `O=c1oc2cc(N3CCNCC3)ccc2cc1-c1ccsc1` [Compound 319, 7-(piperazin-1-yl)-3-(thiophen-3-yl)-2H-chromen-2-one], the melting point is 175 to 177 °C. Also, in series [1] (24 h), the EC (1.5-fold) lay within 1 to 3 µM. Moreover, the “maximum fold (Fold) increase” value in the series on Smn protein was “** (fold increase between >1.2 and ≤1.35)”.

The compound `Cn1c(-c2cc3ccc(N4CCN(C(=O)OCc5ccccc5)CC4)cc3oc2=O)nc2ccccc21` [Compound 43, benzyl 4-[3-(1-methyl-1H-benzimidazol-2-yl)-2-oxo-2H-chromen-7-yl]piperazine-1-carboxylate] returned a melting point of 253 to 254 °C. The EC (1.5-fold) in series [1] (setting [2]) lay within 3 to 30 µM. Besides, the “maximum fold (Fold) increase” value with Smn protein was “* (maximum fold increase of ≤1.2)”.

The compound `O=c1oc2cc(N3CCNCC3)ccc2cc1-c1ccncc1` [Compound 27, 7-(piperazin-1-yl)-3-(pyridin-4-yl)-2H-chromen-2-one] came in with a melting point of 212 to 214 °C. The EC (1.5-fold) in series [1] (24 h) was 1 to 3 µM. Moreover, the “maximum fold (Fold) increase” value in the series on Smn protein was “* (maximum fold increase of ≤1.2)”.

`Cc1cn2cc(-c3cc4ccc(N5C[C@H]6CCCN[C@H]6C5)cc4oc3=O)nc2c(C)n1` [Compound 655, 3-(6,8-dimethylimidazo[1,2-a]pyrazin-2-yl)-7-[(4aR,7aR)-octahydro-6H-pyrrolo[3,4-b]pyridin-6-yl]-2H-chromen-2-one] returned a melting point of 259 to 269 °C. Also, the EC (1.5-fold) in series [1] (setting [2]) was < 0.1 µM. In the series with Smn protein, the EC1.5x (concentration giving 1.5-fold Smn protein increase) was < 300 nM; the “maximum fold (Fold) increase” value was “**** (fold increase between >1.5 and ≤1.65)”.

Consider `C[C@@H]1CN(c2ccc3cc(-c4cc5ccccc5o4)c(=O)oc3c2)C[C@H](C)N1` [Compound 604, 3-(1-benzofuran-2-yl)-7-[(3R,5S)-3,5-dimethylpiperazin-1-yl]-2H-chromen-2-one], for which the melting point lay within 191 to 193 °C. Further, the EC (1.5-fold) in series [1] (setting [2]) fell in the range of 0.3 to 1 µM. For the same compound, the “maximum fold (Fold) increase” value with Smn protein was “* (maximum fold increase of ≤1.2)”.

The compound `Cc1cc(C)c2nc(-c3cc4ccc(N5CCCN(C)CC5)cc4oc3=O)cn2c1` [Compound 389, 3-(6,8-dimethylimidazo[1,2-a]pyridin-2-yl)-7-(4-methyl-1,4-diazepan-1-yl)-2H-chromen-2-one] showed a melting point of 164 to 169 °C. In addition, in series [1] (setting [2]), the EC (1.5-fold) was 0.3 to 1 µM. Besides, the “maximum fold (Fold) increase” value with Smn protein is “*** (fold increase between >1.35 and ≤1.5)”.

The compound `Cc1cn2cc(-c3cc4ccc(N5CCN(C)[C@H](C)C5)cc4oc3=O)nc2c(C)n1` [Compound 606, 3-(6,8-dimethylimidazo[1,2-a]pyrazin-2-yl)-7-[(3R)-3,4-dimethylpiperazin-1-yl]-2H-chromen-2-one] yielded a melting point of 220 to 221 °C. Also, the EC (1.5-fold) in series [1] (setting [2]) is < 0.1 µM. In addition, in the series with Smn protein, the EC1.5x (concentration giving 1.5-fold Smn protein increase) is < 300 nM and the “maximum fold (Fold) increase” value is given as “***** (fold increase >1.65)”.

As for `C[C@@H]1CN(c2ccc3cc(-c4ccc5c(c4)OCO5)c(=O)oc3c2)CCN1` [Compound 488, 3-(1,3-benzodioxol-5-yl)-7-[(3R)-3-methylpiperazin-1-yl]-2H-chromen-2-one], the melting point lay within 135 to 137 °C. Also, the EC (1.5-fold) in series [1] (setting [2]) lay within 3 to 30 µM. In addition, the “maximum fold (Fold) increase” value with Smn protein is reported as “* (maximum fold increase of ≤1.2)”.

With `O=c1oc2cc(CNC(CO)CO)ccc2cc1-c1nc2ccccc2s1` [Compound 99, 3-(1,3-benzothiazol-2-yl)-7-{[(1,3-dihydroxypropan-2-yl)amino]methyl}-2H-chromen-2-one], the melting point lay in the range of 194 to 197 °C. For the same compound, the EC (1.5-fold) in series [1] (setting [2]) was in the range of 3 to 30 µM. Besides, the “maximum fold (Fold) increase” value in the series on Smn protein is reported as “* (maximum fold increase of ≤1.2)”.
